Our source for the pest or weed control, chromatographic logP and inhibition values is patent US20110183978A1, “Phenylpyri(mi)dinylazoles” (Bayer CropScience AG, priority 2009, published 2011).

Data set [1] deals with Botrytis cinerea. The data set is described as follows: Example B: in vivo test on Botrytis cinerea (grey mould on cucumbers). Particulars: cucumber plants sprayed 24 hours before inoculation, scored after 5-7 days, read-out: % Wirkungsgrad. The protocol: In Vivo Test on Botrytis Cinerea (Grey Mould on Cucumbers) An aqueous suspension of the active substance was prepared by homogenization of a mixture of acetone/Tween/dimethyl sulphoxide and subsequent dilution with water to the desired concentration. Cucumber plants (variety: Vert petit de Paris) are sown in cultivation dishes on a peat-pozzolanic earth substrate (50/50) at 18-20° C. and sprayed at the cotyledon stage Z11 with the aqueous suspension described above. As a control, plants are sprayed with an aqueous solution with no active substance. […] The spores are derived from a 15 day-old culture which are suspended in the following nutrient solution: • 20 g/l gelatine • 50 g/l D-fructose • 2 g/l NH4NO3 • 1 g/l KH2PO4 The inoculated cucumber plants are kept for 5-7 days in a climatic chamber at […] After 5-7 days they are scored in comparison with the control plants.

In data set [2] the test system is Mycosphaerella graminicola. As to the kind of experiment: Example G: in vivo test on Mycosphaerella graminicola (wheat leaf blotch disease). As to conditions: Zymoseptoria tritici, wheat plants sprayed 24 hours before inoculation, scored after 21 to 28 days, read-out: % Wirkungsgrad. Here is the method:
In Vivo Test on Mycosphaerella Graminicola (Wheat Leaf Blotch Disease) An aqueous suspension of the active substance was prepared by homogenization of a mixture of acetone/Tween/dimethyl sulphoxide and subsequent dilution with water to the desired concentration. Wheat plants (variety: Scipion) are sown in cultivation dishes on a peat-pozzolanic earth substrate (50/50) at 12° C. and sprayed at the first-leaf stage (10 cm size) with the aqueous suspension described above. As a control, plants are sprayed with an aqueous solution with no active substance. After 24 hours the plants are inoculated by spraying with an aqueous suspension of Mycosphaerella graminicola spores (500,000 spores per ml). The spores are derived from a 7 day-old culture. […] After 21 to 28 days they are scored in comparison with the control plants.

The test system of data set [3] is Sphaerotheca fuliginea. The data set is described as follows: Example D: in vivo test on Sphaerotheca fuliginea (powdery mildew on cucumber). As to conditions: Podosphaera fuliginea, 288 h, cucumber plants sprayed 24 hours before inoculation, scored after 12 days, read-out: % Wirkungsgrad. An outline of the steps:
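Scoring took place 12 days after spore inoculation (100,000 spores/ml, at ca. 20/25° C., 60/70% RH) and was made against plants sprayed without active substance. Inoculation followed by 24 hours a spray of water-diluted acetone/Tween/DMSO compound suspension onto Z10 cotyledon-stage cucumbers.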

A further data set has as its system Septoria tritici. As to the kind of experiment: Example R: in vivo test on Septoria tritici (leaf blotch in wheat/protective). Particulars: Zymoseptoria tritici, 504 h, wheat, protective, 1000 ppm active substance, assessed 21 days after inoculation, read-out: % Wirkungsgrad (activity level). The protocol: Solvent: 49 parts by weight N,N-dimethylacetamide Emulsifier: 1 part by weight alkylaryl polyglycol ethers For the preparation of a suitable active substance preparation, 1 part by weight of active substance is mixed with the stated quantities of solvent and emulsifier and the concentrate is diluted to the desired concentration with water. For the testing for protective activity, young plants are sprayed with the active substance preparation at the stated application dosage. After drying of the spray coating, the plants are sprayed with a spore suspension of Septoria tritici. […] 21 days after the inoculation, the assessment takes place.

Data set [4] relates to Botrytis cinerea. As to the kind of experiment: Example P: in vivo test on Botrytis cinerea (gray mould on bean/protective). As to conditions: 48 h, bean, protective, 250 ppm active substance, assessed 2 days after inoculation, read-out: % Wirkungsgrad (activity level). The method in brief:
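Infection blotch size on leaves was scored 2 days after placing 2 Botrytis-colonised agar pieces per leaf. Inoculation followed drying of a protective spray applied to young plants at the stated dosage. Spray was prepared by diluting compound with solvent and alkylaryl polyglycol ether emulsifier in water.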

For another data set, the system named is Leptosphaeria nodorum. The data set is described as follows: Example Q: in vivo test on Leptosphaeria nodorum (glume blotch in wheat/protective). Particulars: Parastagonospora nodorum, 192 h, wheat, protective, assessment 8 days after inoculation, read-out: % Wirkungsgrad. The protocol:
Solvent: 49 parts by weight N,N-dimethylacetamide Emulsifier: 1 part by weight alkylaryl polyglycol ethers For the preparation of a suitable active substance preparation, 1 part by weight of active substance is mixed with the stated quantities of solvent and emulsifier and the concentrate is diluted to the desired concentration with water. For the testing for protective activity, young plants are sprayed with the active substance preparation at the stated application dosage. After drying of the spray coating, the plants are sprayed with spores with a spore suspension of Leptosphaeria nodorum. […] 8 days after the inoculation, the assessment takes place.

In a further data set the test system is Venturia inaequalis. As to the kind of experiment: Example O: in vivo test on Venturia inaequalis (apple scab/protective). As to conditions: 240 h, protective, assessment 10 days after inoculation, read-out: % Wirkungsgrad. An outline of the steps:
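Young plants received a preventive spray of compound formulated as an emulsifier-containing aqueous dilution at the given application rate, then were inoculated with apple scab fungus. Disease was scored 10 days post-inoculation.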

The next data set has as its system Rhizoctonia solani. As to the kind of experiment: Example W: in vivo test on Rhizoctonia solani (sheath blight in rice/protective). Particulars: 96 h, rice, protective, 250 ppm active substance, assessed 4 days after inoculation, read-out: % Activity level. The protocol:
Solvent: 28.5 parts by weight acetone Emulsifier: 1.5 parts by weight alkylaryl polyglycol ethers For the preparation of a suitable active substance preparation, 1 part by weight of active substance is mixed with the stated quantities of solvent and emulsifier and the concentrate is diluted to the desired concentration with water. For the testing for protective activity, young rice plants are sprayed with the active substance preparation at the stated application dosage. One day after the treatment, the plants are inoculated with hyphae of Rhizoctonia solani. […] 4 days after the inoculation, the assessment takes place.

Another data set deals with Alternaria solani. The data set is described as follows: Example M: in vivo test on Alternaria solani (leaf blotch disease/tomato/protective). Particulars: 168 h, tomato, protective, 500 ppm active substance, assessed 7 days after inoculation, read-out: % Wirkungsgrad (activity level). An outline of the steps:
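Alternaria solani infection on tomato scored 7 days post-inoculation. Before inoculation, young plants received a protective spray at the stated application dose; formulation was compound mixed with N,N-dimethylformamide and emulsifier, water-diluted.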

Data set [5] concerns Sphaerotheca fuliginea. As to the kind of experiment: Example L: in vivo test on Sphaerotheca fuliginea (powdery mildew on cucumber/protective). As to conditions: Podosphaera fuliginea, 168 h, cucumber, protective, assessment 7 days after inoculation, read-out: % Wirkungsgrad. The method in brief: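 Young cucumber plants sprayed at stated dosage with compound in DMF/alkylaryl polyglycol ether emulsifier diluted in water; inoculated with S. fuliginea spores one day later. Kept in greenhouse at 70% relative humidity, 23° C; protective activity assessed 7 days after inoculation.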

The next data set relates to Plasmopara viticola. The data set is described as follows: Example N: in vivo test on Plasmopara viticola (downy mildew, vine/protective). Particulars: 144 h, vine, protective, assessment 6 days after inoculation, read-out: % Wirkungsgrad. The protocol: Emulsifier: 1 part by weight alkylaryl polyglycol ethers For the preparation of a suitable active substance preparation, 1 part by weight of active substance is mixed with the stated quantities of solvent and emulsifier and the concentrate is diluted to the desired concentration with water. For the testing for protective activity, young plants are sprayed with the active substance preparation at the stated application dosage. […] The plants are then moistened and placed in an incubation cabin for 1 day. 6 days after the inoculation, the assessment takes place.

Data set [6] deals with Fusarium nivale (var. majus). As to the kind of experiment: whole plant or invertebrate. It counts as in vivo. Particulars: Microdochium nivale, in Triticum aestivum, 120 h, read-out: % Wirkungsgrad (activity level).
A further data set has as its system Aspergillus parasiticus. The data set is described as follows: microbe, parasite or virus in culture. The class given is cell-based. As to conditions: 168 h.
Data set [7] concerns Fusarium graminearum. As to the kind of experiment: microbe, parasite or virus in culture. It counts as cell-based.
The test system of the next data set is Fusarium proliferatum. The data set is described as follows: Example I: production of fumonisin FB1 by Fusarium proliferatum (microtitre plates). It counts as cell-based. Particulars: 120 h.
Data set [8] deals with Fusarium graminearum. As to the kind of experiment: whole plant or invertebrate. It counts as in vivo. As to conditions: in Hordeum vulgare, 120 h, read-out: % Wirkungsgrad (activity level).
The mark [9] stands for this setting: LogPA (logP of the stated pure compound or, in a mixture, of the main isomer, 1-substituted 3-aryl-1H-pyrazole).
[10] abbreviates: 50 μM, 7 days at 20° C., read-out: Inhibition der Aflatoxin produktion bei 50 μM.
The mark [11] stands for this setting: read-out: % Inhibition des Pilzwachstums bei 50 μM.
Where [12] appears, read: 72 h, read-out: % Inhibition des Pilzwachstums bei 50 μM.
[13] abbreviates: 168 h, read-out: % Inhibition der DON/AcDON produktion bei 50 μM.
Where [14] appears, read: Fusarium proliferatum growth, OD 620, 5 days, read-out: % Inhibition des Pilzwachstums bei 50 μM.
Where [15] appears, read: Fusarium proliferatum, 5 days at 20° C., HPLC-MS/MS, read-out: % Inhibition der FB1 produktion bei 50 μM.

Where two headings read alike, the source gives them in different places.

Take `CC(C)n1cc(-c2ccncc2)c(-c2c(F)cccc2F)n1` [Compound 14]: the values for the pest or weed control at 500 ppm (in the data set with Botrytis cinerea [1]; in [2]; with Sphaerotheca fuliginea [3]) were 100%, 88% and 80%, respectively. The chromatographic logP in the data set “physchem” (setting [9]) came to 1.4.

For the compound `CC(C)Cn1cc(-c2ccnc(NC(C)C)n2)c(-c2ccc(F)cc2)n1` [Compound 174], the pest or weed control at 1000 ppm in the data set on Septoria tritici is 90%; with Leptosphaeria nodorum, 93%. Besides, the pest or weed control at 250 ppm came out at 80% in the data set on Botrytis cinerea [4] and 93% in the data set with Rhizoctonia solani. The pest or weed control at 100 ppm with Venturia inaequalis came out at 100%; in the data set with Plasmopara viticola, 70%. The pest or weed control at 500 ppm in the data set on Alternaria solani and with Sphaerotheca fuliginea [5] was 100% in each case. The chromatographic logP in the data set “physchem” (LogPA) is 2.39.

As for `Fc1cccc(F)c1-c1nn(C2CCC2)cc1-c1ccncc1` [Compound 8], the pest or weed control at 500 ppm in the data set with Botrytis cinerea [1] amounted to 94%; in data set [2], 92%. Moreover, the chromatographic logP in the data set “physchem” (setting [9]) stood at 1.56.

In the case of `COCCn1cc(-c2ccnc(NC(=O)Cc3ccccc3)c2)c(-c2ccc(F)cc2)n1` [Compound 212], the pest or weed control at 1000 ppm in the data set with Septoria tritici was found to be 71%; in the data set on Leptosphaeria nodorum, 71%; in [6], 75%. Further, the pest or weed control at 250 ppm in the data set on Botrytis cinerea [4] is 98%. The pest or weed control at 100 ppm in the data set with Venturia inaequalis amounted to 85%; in the data set with Plasmopara viticola it was 83%. The values for the pest or weed control at 500 ppm in the data set with Alternaria solani and in the data set on Sphaerotheca fuliginea [5] were 95% and 96%, respectively. The chromatographic logP in “physchem” (LogPA) came to 2.6.

For `CC(C)Cn1cc(-c2ccncc2)c(-c2c(F)cccc2F)n1` [Compound 13], the pest or weed control at 500 ppm stood at 100% with Botrytis cinerea [1], 95% in data set [2] and 90% with Sphaerotheca fuliginea [3]. The chromatographic logP in the data set “physchem” (setting [9]) is 1.62.

`Fc1cccc(F)c1-c1c(-c2ccncc2)cnn1C1CCCC1` [Compound 17]: the results for the pest or weed control at 500 ppm (with Botrytis cinerea [1]; in data set [2]; with Sphaerotheca fuliginea [3]) were 83%, 88% and 80%, respectively. The chromatographic logP in the data set “physchem” (setting [9]) amounted to 1.74.

As for `CC(c1cccc(Cl)c1)n1cc(-c2ccncc2)c(-c2ccc(F)cc2)n1` (stereo not shown) [Compound 101], in the data set on Rhizoctonia solani, the pest or weed control at 250 ppm was determined as 95%. Besides, the chromatographic logP in the data set “physchem” (setting [9]) came to 2.17.

For `N#CCCn1cc(-c2ccncc2)c(-c2ccc(F)cc2)n1` [Compound 146], the inhibition at 50 µM in the data set with Aspergillus parasiticus (setting [10]) worked out at 100%; in the data set on Aspergillus parasiticus (setting [11]) it was 99%; in the data set with Fusarium graminearum [7] (setting [12]), 97%; with Fusarium graminearum [7] (setting [13]), 100%; in the data set on Fusarium proliferatum (setting [14]), 41%; with Fusarium proliferatum (setting [15]), 100%. In addition, the figures for the pest or weed control at 500 ppm in the data set with Alternaria solani and in the data set on Sphaerotheca fuliginea [5] were 100% and 95%, respectively. Also, the chromatographic logP in the data set “physchem” (setting [9]) was found to be 0.81.

As for `CCC(=O)Nc1cc(-c2cn(CC(C)C)nc2-c2ccc(F)cc2)ccn1` [Compound 155], the inhibition at 50 µM with Aspergillus parasiticus (setting [10]) is 100%; with Aspergillus parasiticus (setting [11]), 100%; with Fusarium graminearum [7] (setting [12]), 97%; with Fusarium graminearum [7] (setting [13]), 100%; in the data set on Fusarium proliferatum (setting [14]) it was 97%; with Fusarium proliferatum (setting [15]), 100%. The pest or weed control at 250 ppm in the data set on Botrytis cinerea [4] was found to be 99%. Besides, the figures for the pest or weed control at 500 ppm in the data set on Alternaria solani and in the data set on Sphaerotheca fuliginea [5] were 100% and 95%, respectively. The chromatographic logP in the data set “physchem” (setting [9]) was found to be 2.51. In addition, the pest or weed control at 1000 ppm in the data set on Fusarium graminearum [8] turned out to be 88%.

As to `CC(c1cnc(Cl)s1)n1cc(-c2ccncc2)c(-c2ccc(F)cc2)n1` (stereo not shown) [Compound 176], in the data set with Rhizoctonia solani, the pest or weed control at 250 ppm came to 97%. Besides, in the data set with Alternaria solani, the pest or weed control at 500 ppm stood at 100%. The same compound gave a chromatographic logP in the data set “physchem” (LogPA) of 1.82.

As for `CCn1cc(-c2ccnc(NC(=O)COC)c2)c(-c2ccc(F)cc2)n1` [Compound 203], the inhibition at 50 µM in the data set with Aspergillus parasiticus (setting [10]) was 100%; in the data set with Aspergillus parasiticus (setting [11]) it was 100%; with Fusarium graminearum [7] (setting [12]), 100%; with Fusarium graminearum [7] (setting [13]), 100%; in the data set with Fusarium proliferatum (setting [14]), 99%; in the data set with Fusarium proliferatum (setting [15]), 100%. The results for the pest or weed control at 500 ppm in the data set with Alternaria solani and in the data set on Sphaerotheca fuliginea [5] were 93% and 95%, respectively. Moreover, the chromatographic logP in the data set “physchem” (LogPA) is 2.2.
